From patent publication US10273242B2, “Compound inhibiting activities of BTK and/or JAK3 kinases” (BEIJING HANMI PHARMACEUTICAL CO., LTD., priority 2013, dated 2019) come the findings set out here.

For one test, the target named is T1, BTK kinase (Homo sapiens, UniProt Q06187).
T1 construct: purchased Invitrogen PV3363
Kind of test: BTK kinase activity inhibition assay (ADP-Glo). The note with it: ATP 50 μM. In kind it is biochemical. The method, then:
The BTK kinase (purchased from Invitrogen, No.: PV3363) was diluted with reaction buffer (40 mM Tris-HCl, pH 7.5; 20 mM MgCl2, 0.1 mg/ml BSA; 1 mM DTT; 2 mM MnCl2) to 2 times of the final concentration (which is 1.1 ng/μL) and added with 5 μL/well to a 96-well plate. The compounds of the present invention were serial diluted with deionized water to four times (i.e., 40 μM, 4 μM, 0.4 μM, 80 nM, 16 nM, 3.2 nM, respectively) of the final concentrations (10 μM, 1 μM, 0.1 μM, 20 nM, 4 nM, 0.8 nM, respectively), and added at 2.5 μL/well to the test wells of the 96-well plate. After incubation at 25° C. for 10 minutes, ATP (50 μM) (purchased from Promega, No.: V9102) and 0.2 μg/μL of Poly E4Y1 (purchased from Sigma, No.: P0275-25MG) were added with 2.5 μL/well and incubated at 25° C. for 120 minutes. After the reaction was completed, 10 μL of the ADP-Glo reagent (ADP-Glo™ kinase assay kit, purchased from Promega, No.: V9102) was added to each well, and reacted at 25° C. for 40 minutes. Then 20 μL of the ADP-Glo kinase detection reagent was added to each well and reacted at 25° C. for 30 minutes. The kinase activity was detected by luminescence using the ADP-Glo kinase assay kit according to the manufacture's instruction, and IC50 values of the compounds of the present invention were calculated.
Background: ADP-Glo turns the ADP formed in a reaction into a luminescent signal.

Another test addresses T2, JAK3 kinase (Homo sapiens, UniProt P52333).
T2 construct: purchased SignalChem J03-11G
Kind of test: JAK3 kinase activity inhibition assay (ADP-Glo). Format: biochemical. The note with it: ATP 10 μM. The protocol: The JAK3 kinase (purchased from SignalChem, No.: J03-11G) was diluted with reaction buffer (40 mM Tris-HCl, pH 7.5; 20 mM MgCl2, 0.1 mg/ml BSA; 1 mM DTT) to 2 times of the final concentration (which is 0.5 ng/μL) and added with 5 μL/well to a 96-well plate. The compounds of the present invention were serial diluted with deionized water to four times (i.e., 40 μM, 4 μM, 0.4 μM, 80 nM, 16 nM, 3.2 nM, respectively) of the final concentrations (10 μM, 1 μM, 0.1 μM, 20 nM, 4 nM, 0.8 nM, respectively), and added with 2.5 μL/well to the test wells of the 96-well plate. After incubation at 25° C. for 10 minutes, 10 μM of ATP (purchased from Promega, No.: V9102) and 0.2 μg/μL of Poly E4Y1 (purchased from Sigma, No.: P0275-25MG) were added at 2.5 μL/well and reacted at 25° C. for 60 minutes. After the reaction was completed, 10 μL of the ADP-Glo reagent (ADP-Glo™ kinase assay kit, purchased from Promega, No.: V9102) was added to each well and reacted at 25° C. for 40 minutes. Then 20 μL of the ADP-Glo kinase detection reagent was added to each well and reacted at 25° C. for 30 minutes. The kinase activity was detected by luminescence using the ADP-Glo kinase assay kit according to the manufacture's instruction, and IC50 values of the compounds of the present invention were calculated.

Molecules are shown by their SMILES.

T1 sequence (Q06187 whole entry): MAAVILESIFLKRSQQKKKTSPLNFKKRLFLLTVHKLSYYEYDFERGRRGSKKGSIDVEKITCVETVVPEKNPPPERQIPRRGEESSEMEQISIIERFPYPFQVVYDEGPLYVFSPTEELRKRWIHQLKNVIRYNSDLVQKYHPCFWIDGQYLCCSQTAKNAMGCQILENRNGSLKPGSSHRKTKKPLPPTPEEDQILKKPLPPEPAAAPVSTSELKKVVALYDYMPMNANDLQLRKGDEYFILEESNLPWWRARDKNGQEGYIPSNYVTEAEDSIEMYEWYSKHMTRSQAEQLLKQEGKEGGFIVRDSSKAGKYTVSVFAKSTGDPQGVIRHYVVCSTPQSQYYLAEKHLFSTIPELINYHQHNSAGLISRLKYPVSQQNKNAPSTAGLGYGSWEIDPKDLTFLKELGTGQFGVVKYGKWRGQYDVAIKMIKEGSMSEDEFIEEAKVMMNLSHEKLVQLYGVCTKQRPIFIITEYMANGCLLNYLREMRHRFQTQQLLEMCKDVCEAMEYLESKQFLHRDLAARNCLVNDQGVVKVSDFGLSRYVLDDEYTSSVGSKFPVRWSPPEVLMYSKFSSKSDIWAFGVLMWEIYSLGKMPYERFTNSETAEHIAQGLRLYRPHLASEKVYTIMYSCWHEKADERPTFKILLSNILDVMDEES
T2 sequence (P52333 781-1124 limits assumed): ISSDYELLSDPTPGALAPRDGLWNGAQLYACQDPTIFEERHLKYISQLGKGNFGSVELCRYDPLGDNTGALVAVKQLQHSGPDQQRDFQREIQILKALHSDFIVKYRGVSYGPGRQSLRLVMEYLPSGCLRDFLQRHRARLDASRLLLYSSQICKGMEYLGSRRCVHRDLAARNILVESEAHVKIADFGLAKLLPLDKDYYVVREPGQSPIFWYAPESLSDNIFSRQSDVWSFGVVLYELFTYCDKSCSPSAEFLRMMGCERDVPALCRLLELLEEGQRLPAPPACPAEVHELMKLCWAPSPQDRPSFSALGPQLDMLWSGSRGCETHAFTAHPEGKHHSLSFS

Regarding `C=CC(=O)N1CC[C@@H](Nc2nc(Nc3cnn(CCN4CCOCC4)c3)nc3ccsc23)C1` [Example 126], the IC50 – broadly, the concentration that inhibits the measured activity by half – is not above 50 nM on BTK kinase and 10 to 100 nM on JAK3 kinase.
For `C=CC(=O)N1CC(CNc2nc(Nc3cnn(C(C)=O)c3)nc3ccsc23)C1` [Example 116], in that order: not above 50 nM and 10 to 100 nM.
For `C=CC(=O)N1CC(CNc2nc(Nc3cn[nH]c3)nc3ccsc23)C1` [Example 62], in that order: not above 50 nM and 10 to 100 nM.
For `C=CC(=O)N1CCC[C@@H](Nc2nc(Nc3cnoc3)nc3ccsc23)C1` [Example 83], in that order: not above 50 nM and not above 10 nM.
Take `C=CC(=O)N[C@H]1CC[C@@H](Nc2nc(Nc3cnn(C4CCC4)c3)nc3ccsc23)CC1` [Example 12]: at BTK kinase, the IC50 is not above 50 nM.
For the compound `C=CC(=O)N1CCC[C@@H](Nc2nc(Nc3cnn(CCOC)c3)nc3ccsc23)C1` [Example 131], the values for the IC50 against BTK kinase and against JAK3 kinase were not above 50 nM and 10 to 100 nM, respectively.
Compound `C=CC(=O)N[C@H]1CC[C@@H](Nc2nc(Nc3cnn(CCN4CCOCC4)c3)nc3ccsc23)CC1` [Example 18] displayed an IC50 against BTK kinase not above 50 nM.
Regarding `C=CC(=O)N1CC[C@@H](Nc2nc(Nc3cnn(C)c3)nn3cccc23)C1` [Example 138], the IC50 on BTK kinase is not above 50 nM; on JAK3 kinase it was 10 to 100 nM.
At BTK kinase, `C=CC(=O)N[C@H]1CC[C@@H](Nc2nc(Nc3cnn(C)c3)nc3ccoc23)CC1` [Example 57, N-(cis-4-((2-((1-methyl-1H-pyrazol-4-yl)amino)furo[3,2-d]pyrimidin-4-yl)amino)cyclohexyl)acrylamide] registered a 50% inhibitory concentration (IC50) not above 50 nM.
For the compound `C=CC(=O)N1CC(CNc2nc(Nc3cnn(CCOC)c3)nc3ccsc23)C1` [Example 115], the IC50 against BTK kinase was not above 50 nM; on JAK3 kinase, 10 to 100 nM.
For `C=CC(=O)N1CC(CNc2nc(Nc3cnn(C4CCCC4)c3)nc3ccsc23)C1` [Example 112], in that order: not above 50 nM and 10 to 100 nM.
On BTK kinase, `C=CC(=O)N[C@H]1CC[C@@H](Nc2nc(Nc3ccc(OC4CCN(C)CC4)c(F)c3)nc3ccsc23)CC1` [Example 49] registered a half-maximal inhibitory concentration (IC50) not above 50 nM.
As to `C=CC(=O)N1CC(CNc2nc(Nc3cnn(C)c3)nc3ccoc23)C1` [Example 92, 1-(3-(((2-((1-methyl-1H-pyrazol-4-yl)amino)furo[3,2-d]pyrimidin-4-yl)amino)methyl)azetidin-1-yl)prop-2-en-1-one], the IC50 against BTK kinase was not above 50 nM; against JAK3 kinase, 100 to 1000 nM.
For `C=CC(=O)N1CC(CNc2nc(Nc3nccs3)nc3ccsc23)C1` [Example 74], in that order: 50 to 100 nM and 100 to 1000 nM.
For `C=CC(=O)N1CCC[C@@H](Nc2nc(Nc3cnn(C)c3)nc3ccoc23)C1` [Example 95], in that order: not above 50 nM and 10 to 100 nM.
For `C=CC(=O)N1CC[C@@H](Nc2nc(Nc3cnn(CCOC)c3)nc3ccsc23)C1` [Example 122], in that order: not above 50 nM and not above 10 nM.
Compound `C=CC(=O)N[C@H]1CC[C@@H](Nc2nc(Nc3ccc(NC4CCN(C)CC4)c(F)c3)nc3ccsc23)CC1` [Example 44] had a concentration for half-maximal inhibition (IC50) on BTK kinase not above 50 nM.
With `C=CC(=O)N1CCC[C@@H](Nc2nc(Nc3cnn(C(C)C)c3)nc3ccsc23)C1` [Example 128], the half-maximal inhibitory concentration (IC50) against BTK kinase was not above 50 nM; against JAK3 kinase, 10 to 100 nM.
Compound `C=CC(=O)N[C@H]1CC[C@@H](Nc2nc(Nc3cnn(C4CCCC4)c3)nc3ccsc23)CC1` [Example 13] yielded an IC50 against BTK kinase not above 50 nM.
On the same count and under the same terms, next, `C=CC(=O)N[C@H]1CC[C@@H](Nc2nc(Nc3ccc(N4CCOCC4)cc3)nc3ccsc23)CC1` [Example 33]: 50 to 100 nM; `C=CC(=O)N[C@H]1CC[C@@H](Nc2nc(Nc3cnn(C)c3)nc3ccsc23)CC1` [Example 1, N-(cis-4-((2-((1-methyl-1H-pyrazol-4-yl)amino)thieno[3,2-d]pyrimidin-4-yl)amino)cyclohexyl)acrylamide]: not above 50 nM.
Still for that read-out and setting: as for `C=CC(=O)N1CC(CNc2nc(Nc3cnn(C)c3)nn3cccc23)C1` [Example 136], the figure is not above 50 nM; as for `C=CC(=O)N[C@H]1CC[C@@H](Nc2nc(Nc3ccc(N4CCN(C)CC4)cc3)nc3ccsc23)CC1` [Example 34], not above 50 nM; as for `C=CC(=O)N[C@H]1CC[C@@H](Nc2nc(Nc3ccc(C(=O)N4CCN(C)CC4)cc3)nc3ccsc23)CC1` [Example 50], not above 50 nM.
Same read-out and setting: as for `C=CC(=O)N[C@H]1CC[C@@H](Nc2nc(Nc3cnn(CCN(C)C)c3)nc3ccsc23)CC1` [Example 17], the figure is 50 to 100 nM; as for `C=CC(=O)N[C@H]1CC[C@@H](Nc2nc(Nc3ccc(OCCN4CCCCC4)c(F)c3)nc3ccsc23)CC1` [Example 30], 50 to 100 nM.
At BTK kinase, `C=CC(=O)N[C@H]1CC[C@@H](Nc2nc(Nc3cnn(CCO)c3)nc3ccsc23)CC1` [Example 14] had a half-maximal inhibitory concentration (IC50) not above 50 nM.
On the same count and under the same terms, as for `C=CC(=O)N[C@H]1CC[C@@H](Nc2nc(Nc3ccc(NC4CCN(C)CC4)c(Cl)c3)nc3ccsc23)CC1` [Example 46], the figure is not above 50 nM.
Compound `C=CC(=O)NC1CCC(Nc2nc(Nc3cnn(C)c3)nc3ccsc23)CC1` (stereo not shown) [Example 2] showed an IC50 at BTK kinase not above 50 nM.
On the same count and under the same terms, as for `C=CC(=O)N[C@H]1CC[C@@H](Nc2nc(Nc3ccc(NC4CCN(C(C)C)CC4)c(F)c3)nc3ccsc23)CC1` [Example 47], the figure is not above 50 nM; as for `C=CC(=O)N[C@H]1CC[C@@H](Nc2nc(Nc3ccc(N4CCN(C)CC4)c(C)c3)nc3ccsc23)CC1` [Example 36], 50 to 100 nM; as for `C=CC(=O)N[C@H]1CC[C@@H](Nc2nc(Nc3cn[nH]c3)nc3ccsc23)CC1` [Example 4], not above 50 nM.
Same read-out and setting: as for `C=CC(=O)N[C@H]1CC[C@@H](Nc2nc(Nc3cnn(CCF)c3)nc3ccsc23)CC1` [Example 16], the figure is not above 50 nM; as for `C=CC(=O)N[C@H]1CC[C@@H](Nc2nc(Nc3cc(C)ns3)nc3ccsc23)CC1` [Example 8], not above 50 nM; as for `C=CC(=O)N[C@H]1CC[C@@H](Nc2nc(Nc3ccc(OCCN4CCN(C)CC4)c(F)c3)nc3ccsc23)CC1` [Example 31], not above 50 nM.
The same measure, in the same setting: next, `C=CC(=O)N[C@H]1CC[C@@H](Nc2nc(Nc3ccc(C(=O)N4CCN(C)CC4)c(F)c3)nc3ccsc23)CC1` [Example 51]: not above 50 nM; `C=CC(=O)N[C@H]1CC[C@@H](Nc2nc(Nc3ccc(N4CCN(C)CC4)c(F)c3)nc3ccsc23)CC1` [Example 35]: not above 50 nM; `C=CC(=O)N[C@H]1CC[C@@H](Nc2nc(Nc3ccc(C(=O)NC4CCN(C)CC4)c(F)c3)nc3ccsc23)CC1` [Example 52]: 50 to 100 nM.
With `C=CC(=O)N[C@H]1CC[C@@H](Nc2nc(Nc3ccc(NC4CCN(C)CC4)c(C)c3)nc3ccsc23)CC1` [Example 45], on BTK kinase, the concentration for half-maximal inhibition (IC50) lay within 50 to 100 nM.
The same measure, in the same setting: next, `C#CC(=O)N[C@H]1CC[C@@H](Nc2nc(Nc3cnn(C)c3)nc3ccsc23)CC1` [Example 60, N-(cis-4-((2-((1-methyl-1H-pyrazol-4-yl)amino)thieno[3,2-d]pyrimidin-4-yl)amino)cyclohexyl)propynamide]: not above 50 nM.
The same measure, in the same setting: as for `C=CC(=O)N[C@H]1CC[C@@H](Nc2nc(Nc3cnn(CCOC)c3)nc3ccsc23)CC1` [Example 15], the figure is not above 50 nM.
On BTK kinase, `C=CC(=O)N[C@H]1CC[C@@H](Nc2nc(Nc3ccc(NC4CCN(C)CC4)cc3)nc3ccsc23)CC1` [Example 43] yielded an IC50 not above 50 nM.
